Like-named read-outs stand apart in the source and are kept apart here.

The test system of the assay is 3 T3-L1 adipocytes. Nature of the assay: Adipocyte glucose uptake test. It is filed as cell-based, mouse. The procedure:
The 3 T3-L1 mouse embryonic fibroblasts were cultured for induction of adipogenesis, and […] 3 T3-L1 adipocytes were plated for glucose uptake. Krebs-Ringer-Phosphate-HEPES (KRPH) buffer was used to prepare 10-point 3-fold gradient diluted samples. After starvation, the adipocytes were rinsed with KRPH buffer. Ninety μL of gradient-diluted samples of different concentrations were added to each well with high- and low-signal control wells and incubated in a CO2 incubator for 30 min. Add 10 μL/well of KRPH buffer containing 0.25 μCi1- [3H] -deoxyglucose and 50 μM 2-deoxyglucose and incubate in a CO2 incubator for 20 min. Wash the cells with DPBS containing 10 mM glucose at 4 °C. Lysate fat cells with sodium hydroxide solution, transfer to scintillation tube, add scintillation fluid, and count with TriCarb.

The mark [1] stands for this setting: mean ± SEM of 3 repeats, read-out: EC50, fat cell glucose uptake, Mean ± SEM.
Setting [2] is: read-out: EC50, fat cell glucose uptake, N = 1, replicate N = 1, 3 T3-L1 adipocytes, 30 min sample, 20 min [3H]-deoxyglucose.
[3] abbreviates: read-out: EC50, fat cell glucose uptake, N = 2, replicate N = 2.
Where [4] appears, read: read-out: EC50, fat cell glucose uptake, N = 3, replicate N = 3.

One may read the EC50 as the concentration that produces a half-maximal response. On to “H-Insulin: recombinant human insulin injection obtained from Lilly, a regular insulin”, for which the EC50 under setting [1] was 1.8 ± 0.2 nM, the EC50 under setting [2] is 0.9 nM, the 50% effective concentration (EC50) under setting [3] turned out to be 1.7 nM and the half-maximal effective concentration (EC50) under setting [4] amounted to 2.2 nM.
As for “S-Insulin: recombinant human-derived insulin from Sigma, a regular insulin, standard control”, the EC50 is 3.7 ± 0.5 nM under setting [1], 2.5 nM under setting [2], 5.3 nM under setting [3] and 3 nM under setting [4].
